Target: JMJD2C (Homo sapiens (Human), UniProt Q9H3R0)
Experiment: JMJD2C TR-FRET enzyme inhibition assay
Type: biochemical
Settings: H3K9me3-biotin peptide
From the text: This assay determines the ability of a test compound to inhibit Jarid1A, Jarid1B, and JMJD2C demethylase activity. Baculovirus expressed Jarid1A (GenBank Accession # NM_001042603, AA1-1090) was purchased from BPS Bioscience (Cat #50110). Baculovirus expressed Jarid1B (GenBank Accession # NM_006618, AA 2-751) was purchased from BPS Bioscience (Cat #50121) or custom made by MolecularThroughput. Baculovirus-expressed JMJD2C (GenBank Accession # BC143571, AA 2-372) was purchased from BPS Bioscience (Cat #50105).
The ability of test compounds to inhibit the activity of JMJD2C was determined in 384-well plate format under the following reaction conditions: 0.3 nM JMJD2C, 300 nM H3K9me3-biotin labeled peptide (Anaspec cat #64360), 2 μM alpha-ketoglutaric acid in assay buffer of 50 mM HEPES, pH7.3, 0.005% Brij35, 0.5 mM TCEP, 0.2 mg/ml BSA, 50 μM sodium L-ascorbate, and 2 μM ammonium iron(II) sulfate. Reaction product was determined quantitatively by TR-FRET after the addition of detection reagent Phycolink Streptavidin-allophycocyanin (Prozyme) and Europium-anti-di-methylated histone H3 lysine 9 (H3K9me2) antibody (PerkinElmer) in the presence of 5 mM EDTA in LANCE detection buffer (PerkinElmer) at a final concentration of 50 nM and 1 nM, respectively.
The assay reaction was initiated by the following: 2 μl of the mixture of 900 nM H3K9me3-biotin labeled peptide and 6 μM alpha-ketoglutaric acid with 2 μl of 11-point serial diluted inhibitor in 3% DMSO were added to each well of the plate, followed by the addition of 2 μl of 0.9 nM JMJD2C to initiate the reaction. The reaction mixture was incubated at room temperature for 30 min, and terminated by the addition of 6 μl of 5 mM EDTA in LANCE detection buffer containing 100 nM Phycolink Streptavidin-allophycocyanin and 2 nM Europium-anti-H3K9me2 antibody. Plates were read by EnVisionMultilabel Reader in TR-FRET mode (excitation at 320 nm, emission at 615 nm and 665 nm) after 1 hr incubation at rt. A ratio was calculated (665/615) for each well and fitted to determine inhibition constant (IC50).

Sequence of JMJD2C (Q9H3R0 2-372): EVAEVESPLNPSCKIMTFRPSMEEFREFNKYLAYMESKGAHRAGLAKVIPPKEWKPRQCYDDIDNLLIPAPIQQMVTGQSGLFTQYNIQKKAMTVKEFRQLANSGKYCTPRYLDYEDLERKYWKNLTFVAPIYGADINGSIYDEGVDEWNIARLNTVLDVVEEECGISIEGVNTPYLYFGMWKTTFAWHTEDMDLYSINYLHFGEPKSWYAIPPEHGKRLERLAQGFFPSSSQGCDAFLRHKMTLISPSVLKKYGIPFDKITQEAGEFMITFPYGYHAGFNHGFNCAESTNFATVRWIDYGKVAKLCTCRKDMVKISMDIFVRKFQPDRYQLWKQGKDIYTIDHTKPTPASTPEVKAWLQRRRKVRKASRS

Substance	IC50 [nM]
3-{[(6-chloro-1,2,3,4-tetrahydronaphthalen-1-yl)methyl]- amino}pyridine-4-carboxylic acid [Example 68]	100 to 1000
3-{[(6-chloro-1-hydroxy-1,2,3,4-tetrahydronaphthalen-1- yl)methyl]amino}pyridine-4-carboxylic acid [Example 67]	100 to 1000
3-{[(7-fluoro-3,4-dihydro-2H-chromen-4-yl)methyl]- amino}pyridine-4-carboxylic acid [Example 65]	< 100

— patent publication US10807956B2, “Histone demethylase inhibitors” (CELGENE QUANTICEL RESEARCH, INC., priority 2012, dated 2020)
